Measurements from PubChem BioAssay (NCI).
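Briefly, cells in 96-well plates were exposed to five compound concentrations for 48 h, and endpoints were estimated by linear interpolation. GI50 is the concentration that inhibits growth by half. At the TGI there is no net growth.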

Columns and labels:
Assay in all cases: growth of human tumour cells (NCI), 48 h
COLO 205 colon = system: COLO 205 colon
MALME-3M melanoma = system: MALME-3M melanoma
RPMI-8226 leukemia = system: RPMI-8226 leukemia
CAKI-1 renal = system: CAKI-1 renal
HT29 colon = system: HT29 colon
OVCAR-5 ovarian = system: OVCAR-5 ovarian
SW-620 colon = system: SW-620 colon
HOP-92 NSCLC = system: HOP-92 NSCLC
OVCAR-8 ovarian = system: OVCAR-8 ovarian
HL-60(TB) leukemia = system: HL-60(TB) leukemia

SMILES | GI50 (COLO 205 colon) [µM] | TGI (COLO 205 colon) [µM] | GI50 (MALME-3M melanoma) [µM] | TGI (MALME-3M melanoma) [µM] | GI50 (RPMI-8226 leukemia) [µM] | TGI (RPMI-8226 leukemia) [µM] | GI50 (CAKI-1 renal) [µM] | TGI (CAKI-1 renal) [µM] | GI50 (HT29 colon) [µM] | TGI (HT29 colon) [µM] | GI50 (OVCAR-5 ovarian) [µM] | TGI (OVCAR-5 ovarian) [µM] | GI50 (SW-620 colon) [µM] | TGI (SW-620 colon) [µM] | GI50 (HOP-92 NSCLC) [µM] | TGI (HOP-92 NSCLC) [µM] | GI50 (OVCAR-8 ovarian) [µM] | TGI (OVCAR-8 ovarian) [µM] | GI50 (HL-60(TB) leukemia) [µM] | TGI (HL-60(TB) leukemia) [µM]
Cc1c(N2C(=O)/C(=C\c3ccccc3O)N=C2c2ccccc2)c(=O)n(-c2ccccc2)n1C | > 100 | > 100 | 49.1 | > 100 | > 100 | > 100 | 15.6 | 76.9 | > 100 | > 100 | > 100 | > 100 | > 100 | > 100 | 17.6 | 68.4 | 63.2 | > 100 | > 100 | > 100
O=C(Nc1ccccc1[N+](=O)[O-])c1ccccc1 |  | > 100 |  | > 100 |  | > 100 |  | > 100 |  | > 100 |  | > 100 |  | > 100 |  | > 100 |  | > 100 |  | > 100
COc1cc2c(c(O)c1C)C(=O)C(Cl)=CC2=O |  | 4.96 |  | 12.5 |  | 68.3 |  | 11.6 |  | 21.9 |  | 44.3 |  | 8.29 |  | 11.5 |  | 45 |  | 5.57
COc1cccc(-c2nn(-c3ccccc3)cc2-c2ccnc(NCCCNS(=O)(=O)c3cccc(F)c3)c2)c1 | 2.41 | 9.39 | 5.16 | > 100 | 2.91 | 9.92 | 6.16 | > 100 | 2.87 | 18.8 | > 100 | > 100 | 5.54 | > 100 | 2.42 | 9.63 | 3.93 | > 100 | 3.52 | 24.7
O=C(O/N=C1/CCC/C1=C\c1ccccc1)c1ccc([N+](=O)[O-])cc1 |  | > 100 |  | > 100 |  | > 100 |  | > 100 |  | > 100 |  | > 100 |  | > 100 |  | > 100 |  | > 100 |  | > 100
CN1CCCNCCN(CCc2ccccn2)CCCN(C)CC1 |  | > 62.8 |  | > 100 |  | > 70.4 |  | > 100 |  | > 100 |  | > 100 |  | > 53.6 |  | > 100 |  | > 100 |  | > 63.6
C/C(=N\NC(N)=S)c1ccc(C)cc1C |  | > 100 |  | > 100 |  | > 100 |  | > 100 |  | > 100 |  | 94.1 |  | > 100 |  | > 100 |  | > 100 |  | > 100
Fc1ccc(-c2nn(-c3ccccc3)cc2-c2nc3ccccc3o2)cc1 | 15.1 | 30.5 | 1.71 | 5.99 | 1.05 | 9.3 | 3.13 | > 100 | 9.46 | 30.4 | 20.1 | 77.2 | 3.12 | 36.4 | 0.158 | 4.48 | 3.61 | > 100 | 3.29 | 9.26
CCOC(=O)c1cc(-c2ccc([N+](=O)[O-])cc2)n(-c2ccc(C(=O)O)c(O)c2)c1C | 1.6 | 3.84 | 2.23 | 12.5 | 0.148 | > 100 | 11.6 | 30.1 | 3.23 | 13.3 | 17.3 | 35.3 | 4.76 | 16.8 | 2.09 | 13.4 | 5.29 | 43.7 | 4.94 | 48.4
CC1=C2[C@@H](CC1)[C@]1(C)O[C@@](C(C)C)(C[C@H]1OC(=O)[C@H](C)O)[C@H]2OC(=O)/C=C/c1ccccc1 | 16.9 | 36.2 | 14.9 | 31.6 | 7.9 | 30.8 | 6.12 | 26 | 13.6 | 30 | 17.7 | 36.2 | 16.4 | 33.9 | 5.95 | 19.4 | 0.451 | 16.6 | 13.5 | 39.5
